IC50 data for 8 compounds are collected here from patent US20110015225A1, “Heterocyclic compound” (Takeda Pharmaceutical Company Limited, priority 2008, published 2011).

The assay concerns the target MCH receptor (SLC-1) (UniProt Q99705). Description: MCH receptor antagonistic activity using GTPγS binding assay. The format is biochemical, human. Conditions: [35S]-GTPγS binding, membrane fractions of SLC-1 expression CHO cells, 3×10^−10 M MCH, 25° C. 1 hr; read-out: Inhibitory Activity (IC50 value: nM). The procedure:
Using human SLC-1 expression CHO cell clone 57 and rat SLC-1 expression CHO cell clone 44 described in WO01/82925, membrane fractions of SLC-1 expression CHO cells were prepared by the following method. In phosphate buffered saline (pH 7.4) supplemented with 5 mM EDTA (ethylenediaminetetraacetic acid) were suspended human and rat SLC-1 expression CHO cells (1×10^8) and centrifuged. Homogenate buffer (10 ml, 10 mM […], 5 mM EDTA, pH 7.5) was added to the pellets of the cells and, using Polytron Homogenizer, the mixture was homogenated. The supernatant obtained after centrifugation at 400×g for 15 min was further centrifuged at 100,000×g for 1 hr to give precipitate of the membrane fraction. The precipitate was suspended in 2 ml of an assay buffer [50 mM Tris-HCl (pH 7.5), 1 mM EDTA, 0.1% BSA (bovine serum albumin), 10 mM MgCl2, 100 mM NaCl, 1 μM GDP (guanosine 5′-diphosphate), 0.25 mM PMSF (phenylmethylsulfonyl fluoride), […]] and centrifuged at 100,000×g for 1 hr. The membrane fraction recovered as precipitate was suspended again in 20 ml of an assay buffer, and after dispensing, preserved at −80° C. and used upon thawing each time when in use.
The MCH receptor antagonistic activity of the test compound was determined as follows. The membrane fractions of SLC-1 expression CHO cells (171 μl) diluted with an assay buffer was dispensed to a polypropylene 96 well plate and 3×10^−10 M MCH (2 μl) diluted with DMSO solution, test compound solution (2 μl) diluted to various concentrations and [^35S]-Guanosine 5′-(γ-thio)triphosphate (25 μl, Daiichi Pure Chemicals Co., Ltd.) were respectively added (cellular membrane final concentration: 20 μg/ml, [^35S]-Guanosine 5′-(γ-thio)triphosphate final concentration: 0.33 nM). The reaction mixture was reacted at 25° C. for 1 hr with stirring, suction filtered with a glass filter (GF-C) and washed 3 times with a wash solution (300 μl, 50 mM Tris-HCl buffer, pH 7.5). Liquid scintillator ([…]) was added to the glass filter and the residual radioactivity was determined by a liquid scintillation counter.
Binding inhibition (%)=(radioactivity upon addition of test compound and MCH−radioactivity upon addition of DMSO solution)/(radioactivity upon addition of MCH−radioactivity upon addition of DMSO solution)×100
From the binding inhibition (%), IC50 of the test compound was calculated.
On the technique in general: GTPγS is a poorly hydrolysed GTP analogue; its binding reports G protein activation.
In general, IC50 refers to the concentration that inhibits the measured activity by half. For `Cc1c(NC(=O)c2ccc(OCC3CC3)cc2F)ccc2cc(CNC3CC[S+]([O-])CC3)cnc12` (stereo not drawn) [Ex. 36, 4-(cyclopropylmethoxy)-2-fluoro-N-(8-methyl-3-{[(cis-1-oxidotetrahydro-2H-thiopyran-4-yl)amino]methyl}quinolin-7-yl)benzamide], the IC50 came to 3.4 nM.

`Cc1c(NC(=O)c2ccc(C#CC3CC3)cc2)ccc2cc(CNC3CCS(=O)(=O)CC3)cnc12` [Ex. 41, 4-(cyclopropylethynyl)-N-(3-{[(1,1-dioxidotetrahydro-2H-thiopyran-4-yl)amino]methyl}-8-methylquinolin-7-yl)benzamide]: the IC50 turned out to be 2.2 nM.

With `Cc1c(NC(=O)c2ccc(C#CC3CC3)cc2)ccc2cc(CNC3CCN(S(C)(=O)=O)CC3)cnc12` [Ex. 42, 4-(cyclopropylethynyl)-N-[8-methyl-3-({[1-(methylsulfonyl)piperidin-4-yl]amino}methyl)quinolin-7-yl]benzamide], the IC50 was 2.3 nM.

As to `Cc1c(NC(=O)c2ccc(C#CC3CC3)cc2)ccc2cc(CNCC3(O)CCS(=O)(=O)CC3)cnc12` [Ex. 43, 4-(cyclopropylethynyl)-N-[3-({[(4-hydroxy-1,1-dioxidotetrahydro-2H-thiopyran-4-yl)methyl]amino}methyl)-8-methylquinolin-7-yl]benzamide], the concentration for half-maximal inhibition (IC50) is 4.7 nM.

As to `Cc1c(NC(=O)c2ccc(C#CC3CC3)cc2)ccc2cc(CNCCCS(C)(=O)=O)cnc12` [Ex. 44, 4-(cyclopropylethynyl)-N-[8-methyl-3-({[3-(methylsulfonyl)propyl]amino}methyl)quinolin-7-yl]benzamide], the 50% inhibitory concentration (IC50) came to 2.2 nM.

For `Cc1c(NC(=O)c2ccc(/C=C/C3CC3)cc2)ccc2cc(CNC3CCS(=O)(=O)CC3)cnc12` [Ex. 45, 4-[(E)-2-cyclopropylvinyl]-N-(3-{[(1,1-dioxidotetrahydro-2H-thiopyran-4-yl)amino]methyl}-8-methylquinolin-7-yl)benzamide], the IC50 amounted to 4.9 nM.

In the case of `O=C(Nc1ccc2cc(CNC3CCS(=O)(=O)CC3)ccc2c1)c1ccc(OCC2CC2)cc1` [Ex. 46, 4-(cyclopropylmethoxy)-N-(6-{[(1,1-dioxidotetrahydro-2H-thiopyran-4-yl)amino]methyl}naphthalen-2-yl)benzamide], the IC50 is 4.4 nM.

As to `CC1=C(CNC2CCS(=O)(=O)CC2)CCc2cc(NC(=O)c3ccc(OCC4CC4)cc3)ccc21` [Ex. 47, 4-(cyclopropylmethoxy)-N-(6-{[(1,1-dioxidotetrahydro-2H-thiopyran-4-yl)amino]methyl}-5-methyl-7,8-dihydronaphthalen-2-yl)benzamide], the IC50 came to 6.7 nM.
